From patent US4684664A, “Derivatives of β-(4-isocyano-1,2,3,4-diepoxycyclopentyl) acrylic acid” (Kureha Kagaku Kogyo Kabushiki Kaisha, priority 1984, dated 1987)
In brackets after ≈: the same amount, converted by molar mass.

What was measured:
Format in all cases: cell-based
[1] = test system: Enterobacter cloacae 963; assay: Antibacterial activity, agar-dilution MIC, organism No. 24; details: Enterobacter cloacae, 963; Organism No. 24, bouillon-agar; read-out: Minimum Inhibitory Concentration
Description: (§1) Agar-dilution method was used for determination of the antibacterial activity and antifungal activity while using bouillon-agar culture medium, and the minimum inhibitory concentration of the specimen was expressed by μg/ml of the culture medium.

[2] = test system: Salmonella paratyphi-A 1015; assay: Antibacterial activity, agar-dilution MIC, organism No. 10; details: Salmonella enterica, PARATYPHI, read-out: Minimum Inhibitory Concentration
Description: as §1

[3] = test system: Mycoplasma pneumoniae IID817; assay: Antimycoplasmal activity, MIC by phenol red colour change, organism No. 28; details: Mycoplasma, IID817; Organism No. 28, PPLO broth + 1% glucose, 37° C.; read-out: Minimum Inhibitory Concentration (MIC)
Procedure: Mycoplasma pneumoniae IID817 was used as the test microorganism in a culture medium prepared by adding 1% of glucose to "PPLO broth (manufactured by Difco Co.) liquid culture medium" at 37° C. with phenol red as an indicator, thereby culturing the test microorganism.

[4] = test system: Bacillus subtilis ATCC 6633; assay: Antibacterial activity, agar-dilution MIC, organism No. 14; details: Bacillus subtilis, ATCC6633; Organism No. 14, bouillon-agar; read-out: Minimum Inhibitory Concentration
Description: as §1

[5] = test system: Staphylococcus aureus FDA 209PJc-1; assay: Antibacterial activity, agar-dilution MIC, organism No. 1; details: Staphylococcus aureus, FDA209PJC1; Organism No. 1, bouillon-agar; read-out: Minimum Inhibitory Concentration
Description: as §1

[6] = test system: Pseudomonas aeruginosa PAO 1; assay: Antibacterial activity, agar-dilution MIC, organism No. 17; details: Pseudomonas aeruginosa, PAO1; Organism No. 17, bouillon-agar; read-out: Minimum Inhibitory Concentration
Description: as §1

[7] = test system: Proteus rettgeri IFO 3850; assay: Antibacterial activity, agar-dilution MIC, organism No. 22; details: Providencia rettgeri, IFO3850; Organism No. 22, bouillon-agar; read-out: Minimum Inhibitory Concentration
Description: as §1

[8] = test system: Candida albicans IAM 4905; assay: Antifungal activity, agar-dilution MIC, organism No. 29; details: Candida albicans, IAM4905; Organism No. 29, bouillon-agar; read-out: Minimum Inhibitory Concentration
Description: as §1

[9] = test system: Aspergillus niger IFO 6342; assay: Antifungal activity, agar-dilution MIC, organism No. 30; details: Aspergillus niger, IFO6342; Organism No. 30, bouillon-agar; read-out: Minimum Inhibitory Concentration
Description: as §1

[10] = test system: Salmonella enteritidis G 14; assay: Antibacterial activity, agar-dilution MIC, organism No. 12; details: Salmonella enterica, ENTERITIDIS; Organism No. 12, bouillon-agar; read-out: Minimum Inhibitory Concentration
Description: as §1

[11] = test system: Pseudomonas aeruginosa IFO 3445; assay: Antibacterial activity, agar-dilution MIC, organism No. 15; details: Pseudomonas aeruginosa, IFO3445; Organism No. 15, bouillon-agar; read-out: Minimum Inhibitory Concentration
Description: as §1

[12] = test system: Staphylococcus aureus MS 353; assay: Antibacterial activity, agar-dilution MIC, organism No. 3; details: Staphylococcus aureus, MS353; Organism No. 3, bouillon-agar; read-out: Minimum Inhibitory Concentration
Description: as §1

[13] = test system: Streptococcus pyogenes IFO 3340; assay: Antibacterial activity, agar-dilution MIC, organism No. 26; details: Streptococcus pyogenes, IFO3340; Organism No. 26, bouillon-agar; read-out: Minimum Inhibitory Concentration
Description: as §1

[14] = test system: Proteus vulgaris OX-19; assay: Antibacterial activity, agar-dilution MIC, organism No. 20; details: Proteus vulgaris, OX19; Organism No. 20, bouillon-agar; read-out: Minimum Inhibitory Concentration
Description: as §1

[15] = test system: Proteus mirabilis IFO 3849; assay: Antibacterial activity, agar-dilution MIC, organism No. 19; details: Proteus mirabilis, IFO3849; Organism No. 19, bouillon-agar; read-out: Minimum Inhibitory Concentration
Description: as §1

[16] = test system: Proteus vulgaris HX-19; assay: Antibacterial activity, agar-dilution MIC, organism No. 21; details: Proteus vulgaris, HX19; Organism No. 21, bouillon-agar; read-out: Minimum Inhibitory Concentration
Description: as §1

[17] = test system: Salmonella typhi 901; assay: Antibacterial activity, agar-dilution MIC, organism No. 9; details: Salmonella enterica, TYPHI, read-out: Minimum Inhibitory Concentration
Description: as §1

[18] = test system: Streptococcus faecium IFO 3826; assay: Antibacterial activity, agar-dilution MIC, organism No. 27; details: Enterococcus faecium, IFO3826; Organism No. 27, bouillon-agar; read-out: Minimum Inhibitory Concentration
Description: as §1

[19] = test system: Escherichia coli K12 C600 IAM 1264; assay: Antibacterial activity, agar-dilution MIC, organism No. 6; details: Escherichia coli, IAM1264; Organism No. 6, bouillon-agar; read-out: Minimum Inhibitory Concentration
Description: as §1

[20] = test system: Klebsiella pneumoniae PCI-602; assay: Antibacterial activity, agar-dilution MIC, organism No. 7; details: Klebsiella pneumoniae, PCI602; Organism No. 7, bouillon-agar; read-out: Minimum Inhibitory Concentration
Description: as §1

[21] = test system: Micrococcus luteus ATCC 9341; assay: Antibacterial activity, agar-dilution MIC, organism No. 25; details: Micrococcus luteus, ATCC9341; Organism No. 25, bouillon-agar; read-out: Minimum Inhibitory Concentration
Description: as §1

[22] = test system: Proteus morganii IFO 3848; assay: Antibacterial activity, agar-dilution MIC, organism No. 18; details: Morganella morganii, IFO3848; Organism No. 18, bouillon-agar; read-out: Minimum Inhibitory Concentration
Description: as §1

[23] = test system: Escherichia coli NIHJ-JC-2; assay: Antibacterial activity, agar-dilution MIC, organism No. 5; details: Escherichia coli, NIHJJC2; Organism No. 5, bouillon-agar; read-out: Minimum Inhibitory Concentration
Description: as §1

[24] = test system: Pseudomonas aeruginosa NCTC 10490; assay: Antibacterial activity, agar-dilution MIC, organism No. 16; details: Pseudomonas aeruginosa, NCTC10490; Organism No. 16, bouillon-agar; read-out: Minimum Inhibitory Concentration
Description: as §1

[25] = test system: Staphylococcus aureus Terajima; assay: Antibacterial activity, agar-dilution MIC, organism No. 2; details: Staphylococcus aureus; Organism No. 2, bouillon-agar; read-out: Minimum Inhibitory Concentration
Description: as §1

[26] = test system: Streptococcus pyogenes Cook; assay: Antibacterial activity, agar-dilution MIC, organism No. 4; details: Streptococcus pyogenes; Organism No. 4, bouillon-agar; read-out: Minimum Inhibitory Concentration
Description: as §1

[27] = test system: Enterobacter aerogenes ATCC 13048; assay: Antibacterial activity, agar-dilution MIC, organism No. 23; details: Klebsiella aerogenes, ATCC13048; Organism No. 23, bouillon-agar; read-out: Minimum Inhibitory Concentration
Description: as §1

[28] = test system: Salmonella typhimurium IID 971; assay: Antibacterial activity, agar-dilution MIC, organism No. 8; details: Salmonella enterica; Organism No. 8, bouillon-agar; read-out: Minimum Inhibitory Concentration
Description: as §1

[29] = test system: Salmonella shottmuelleri 8006; assay: Antibacterial activity, agar-dilution MIC, organism No. 11; details: Salmonella, 8006; Organism No. 11, bouillon-agar; read-out: Minimum Inhibitory Concentration
Description: as §1

SMILES	MIC [1] [µg/mL]	MIC [2] [µg/mL]	MIC [3] [µg/mL]	MIC [4] [µg/mL]	MIC [5] [µg/mL]	MIC [6] [µg/mL]	MIC [7] [µg/mL]	MIC [8] [µg/mL]	MIC [9] [µg/mL]	MIC [10] [µg/mL]	MIC [11] [µg/mL]	MIC [12] [µg/mL]	MIC [13] [µg/mL]	MIC [14] [µg/mL]	MIC [15] [µg/mL]	MIC [16] [µg/mL]	MIC [17] [µg/mL]	MIC [18] [µg/mL]	MIC [19] [µg/mL]	MIC [20] [µg/mL]	also measured
[C-]#[N+]C12CC3(/C=C/C(=O)Nc4cccc(C)c4)OC3C1O2 (stereo not drawn) [compound 38]	> 200	< 0.05	< 0.2	3.13 (≈ 11.1 µM)	< 0.05	> 200	3.13 (≈ 11.1 µM)	0.78 (≈ 2.76 µM)	1.56 (≈ 5.53 µM)	1.56 (≈ 5.53 µM)	> 200	< 0.05	0.39 (≈ 1.38 µM)	0.05 (≈ 0.177 µM)	> 200	0.05 (≈ 0.177 µM)	1.56 (≈ 5.53 µM)	12.5 (≈ 44.3 µM)	12.5 (≈ 44.3 µM)	< 0.05	MIC [21]: < 0.05 µg/mL; MIC [22]: 12.5 µg/mL (≈ 44.3 µM); MIC [23]: 12.5 µg/mL (≈ 44.3 µM); MIC [24]: > 200 µg/mL; MIC [25]: 0.1 µg/mL (≈ 0.354 µM); MIC [26]: 6.25 µg/mL (≈ 22.1 µM); MIC [27]: > 200 µg/mL; MIC [28]: 6.25 µg/mL (≈ 22.1 µM); MIC [29]: < 0.05 µg/mL
[C-]#[N+]C12CC3(/C=C/C(=O)Nc4ccccc4C)OC3C1O2 (stereo not drawn) [compound 39]	200 (≈ 708 µM)	12.5 (≈ 44.3 µM)	< 0.2	> 200	0.78 (≈ 2.76 µM)	> 200	> 200	0.39 (≈ 1.38 µM)	1.56 (≈ 5.53 µM)	50 (≈ 177 µM)	> 200	1.56 (≈ 5.53 µM)	25 (≈ 88.6 µM)	6.25 (≈ 22.1 µM)	> 200	< 0.05	25 (≈ 88.6 µM)	200 (≈ 708 µM)	> 200	1.56 (≈ 5.53 µM)	MIC [21]: < 0.05 µg/mL; MIC [22]: 100 µg/mL (≈ 354 µM); MIC [23]: > 200 µg/mL; MIC [24]: > 200 µg/mL; MIC [25]: 3.13 µg/mL (≈ 11.1 µM); MIC [26]: 100 µg/mL (≈ 354 µM); MIC [27]: > 200 µg/mL; MIC [28]: > 200 µg/mL; MIC [29]: 3.13 µg/mL (≈ 11.1 µM)
[C-]#[N+]C12CC3(/C=C/C(=O)Nc4ccc(Cl)cc4)OC3C1O2 (stereo not drawn) [compound 40]	200 (≈ 661 µM)	0.1 (≈ 0.33 µM)	< 0.2	6.25 (≈ 20.6 µM)	< 0.05	> 200	6.25 (≈ 20.6 µM)	0.39 (≈ 1.29 µM)	1.56 (≈ 5.15 µM)	3.13 (≈ 10.3 µM)	> 200	< 0.05	0.39 (≈ 1.29 µM)	0.1 (≈ 0.33 µM)	> 200	< 0.05	0.39 (≈ 1.29 µM)	> 200	> 200	< 0.05	MIC [21]: < 0.05 µg/mL; MIC [22]: 3.13 µg/mL (≈ 10.3 µM); MIC [23]: > 200 µg/mL; MIC [24]: > 200 µg/mL; MIC [25]: 0.1 µg/mL (≈ 0.33 µM); MIC [26]: 200 µg/mL (≈ 661 µM); MIC [27]: > 200 µg/mL; MIC [28]: 12.5 µg/mL (≈ 41.3 µM); MIC [29]: 0.1 µg/mL (≈ 0.33 µM)
